Entries after “also recorded” stand apart in the source; their conditions may differ.
Tests used:
[1] = parameters: method as in doi:10.2174/1876388X00901010015; conditions: cited from earlier work
A3R = test system: A3R; parameters: method as in PMID 20447552; conditions: cited from earlier work
[2] = target: T1, CHO cells expressing the human A3R (CHO-A3) (Homo sapiens, UniProt P0DMS8); assay: Xenograft mouse model PET (CHO vs CHO-A3 solid tissue masses); format: in vivo, mice
T1 construct: Karl-Norbert Klotz (University of Würzburg); host or cells: CHO cells stably transfected (CHO-A3), grown as subcutaneous masses in NMRI-nu/nu mice
T1 sequence (P0DMS8 1-318): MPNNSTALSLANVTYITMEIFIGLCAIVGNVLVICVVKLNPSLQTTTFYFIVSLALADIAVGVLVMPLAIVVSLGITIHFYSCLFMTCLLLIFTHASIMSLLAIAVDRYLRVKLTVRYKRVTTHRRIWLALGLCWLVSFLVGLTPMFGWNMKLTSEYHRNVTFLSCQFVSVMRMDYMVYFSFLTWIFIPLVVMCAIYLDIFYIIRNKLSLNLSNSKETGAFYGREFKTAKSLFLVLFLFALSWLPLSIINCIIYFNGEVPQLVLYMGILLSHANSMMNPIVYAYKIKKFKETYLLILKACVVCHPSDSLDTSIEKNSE
Protocol: Adult male Sprague-Dawley rats (Him:OFA; Animal Research Institute, Himberg, Austria) weighing 307 ± 35 g were kept under controlled environmental conditions (22 ± 1 °C, 40 – 70 % humidity, 12-h light/dark cycle) with free access to standard laboratory animal diet and tap water. Before being used in the experiments, the animals were allowed to adapt to the new conditions for at least a week. Prior to each experiment, the animals were placed in a chamber containing 2.5 % isoflurane in oxygen. When unconscious, the animals were taken from the chamber and kept under anaesthesia with 1.8 % isoflurane administered via a mask during the whole experiment. Pathogen-free, female NMRI-nu/nu mice (Taconic, Denmark) weighing 28.1 ± 0.8 g were housed under sterile conditions. Mice were injected subcutaneously into both upper flanks with 100 μL of a cell suspension in phosphate-buffered saline containing 10^6 CHO cells (right side) or 10^6 CHO-A3 cells (left side). During the imaging periods of 60 or 90 min (rats or xenografted mice, respectively) the isoflurane level was adjusted depending on the depth of anaesthesia. A humidifier was used to moisten the gas mixture before supplying it to the animal.
Around 17 days after cell inoculation, animals in the xenograft group were positioned in the imaging chamber and a dynamic 90-min PET scan was initiated at the start of [^18F]FE@SUPPY injection (2.21 ± 0.75 MBq dissolved in 100 μl physiological saline, pH 7.4; three animals) via a tail vein under isoflurane anaesthesia (2 %). Additionally, in this group, [^18F]FDG PET was performed 1 day prior to the [^18F]FE@SUPPY experiments. […] In brief, mice were deprived of food for 6 – 8 h before [^18F]FDG injection via a tail vein. Mice had access to drinking water at all times. Body warming was achieved by placing the entire cage on a heating pad kept at 38 °C. Warming was started around 30 min before tracer injection and was continued throughout the uptake and imaging period. [^18F]FDG (6.03 ± 1.31 MBq dissolved in 100 μL physiological saline, pH 7.4; three animals) was injected via a tail vein under isoflurane anaesthesia (2 %). Mice were kept under isoflurane anaesthesia throughout the whole uptake and imaging period. A 10-min static image was acquired at 1 h after [^18F]FDG injection. […]
For all PET scans (rats and xenografted mice), list mode data were acquired with an energy window of 350 – 750 keV (rats) or 250 – 750 keV (mice) and a 6-ns timing window. Before each PET scan, a transmission scan using a ^57Co point source was recorded over 10 min. […] A calibration factor for converting units of microPET images into absolute radioactivity concentration units was first generated by imaging a phantom filled with a known concentration of [^18F]FDG. […]

[3] = In vitro plasma stability, human plasma; format: in vitro ADME; conditions: 0-120 min
Protocol: (§1) Experiments were conducted following a standard protocol. Briefly, [^18F]FE@SUPPY was added to lithium-heparinized human or rat plasma and after predetermined times (0, 60 and 120 min), the incubation mixture was eluted through a preconditioned SPE cartridge. The washed and newly eluted eluate solutions were injected into the radio-HPLC system (HPLC system as described in the section Ex vivo stability). The stationary phase was an analytical HPLC column LiChrospher LICHROCART® RP-18e (5 μm), 125 × 4 mm precolumn, and the mobile phase consisted of sodium citrate tribasic dehydrate (buffered at 0.034 M, pH 2.5)/acetonitrile 32:68 at a flow rate of 2 mL/min. Samples were incubated with a Thermomixer Compact from Eppendorf (Vienna, Austria) and centrifuged with a Universal 30 RF centrifuge from Hettich (Tuttlingen, Germany).

[4] = In vitro plasma stability, rat plasma; format: in vitro ADME
Protocol: as §1

[5] = parameters: method as in PMID 20447552; conditions: rats, 30 min after injection; cited from earlier work

- increased uptake (AUC) in CHO-A3 versus CHO tissue masses ([2]; xenografted NMRI-nu/nu mice, 90-min PET): around 1.42 fold
- radioactivity from metabolites in rat plasma ([4]; 60 min): 18.7 ± 3%
- radioactivity from metabolites in rat plasma ([4]; 120 min): 35.0 ± 4%
- radioactive metabolites in rat plasma over the observation period ([4]; observation period of 120 min): 19 – 35%
SMILES: CCSC(=O)c1c(CC)nc(-c2ccccc2)c(C(=O)OCC[18F])c1CC [[^18F]FE@SUPPY, 5-(2-[^18F]fluoroethyl)-2,4-diethyl-3-(ethylsulfanylcarbonyl)-6-phenylpyridine-5-carboxylate]
- logP assessment [1]: high lipophilicity
- HPLClogD^7.4 ([1]; pH 7.4): 4.04
- Autoradiography in humans and rats (A3R): High selectivity; FE@SUPPLY comparable with MRS1523 [12]
- Xenograft model of human A3R, finding ([2]; compared to [^18F]FDG): Specific uptake in CHO-A3 solid mass (p ≤ 0.03) compared to [^18F]FDG
- stability in human plasma [3]: no degradation; also recorded: no metabolites were observed; also recorded: Stable over 120 min in human plasma
- metabolites in brain [5]: no metabolites
- parent compound left in plasma [5]: 30%

— paper PMC4349960, “[^18F]FE@SUPPY: a suitable PET tracer for the adenosine A3 receptor? An in vivo study in rodents” (European Journal of Nuclear Medicine and Molecular Imaging, 2015)
